Some test systems named below: Cladosporium herbarum; Botrytis cinerea; Alternaria alternata; Escherichia coli UB1005; Escherichia coli K88; Escherichia coli 44102; Escherichia coli 078; Escherichia coli ER2566; Escherichia coli HB101.
Assay in all cases: ≥ marks a high value that may be exact or a test limit, other limits are often not marked, values filed in µg/mL are converted to µM
For assay [1], the system named is Pseudomonas syringae pv. syringae DSM 10604.
The subject of assay [2] is Pseudomonas syringae pv. tomato DC3000.
Assay [3] concerns Xanthomonas vesicatoria DSM 50861.
Assay [4] relates to Pseudomonas corrugata DSM 7228.
Assay [5] relates to Pectobacterium carotovorum subsp. carotovorum DSM 30168.
Assay [6] relates to Clavibacter michiganensis subsp. michiganensis DSM 46294.
The subject of assay [7] is Pseudomonas aeruginosa ATCC 21625.
Assay [8] deals with Enterococcus faecalis ATCC 29212.
Assay [9] concerns Salmonella enterica subsp. enterica serovar Typhimurium ATCC 14028.
For assay [10], the system named is Pseudomonas aeruginosa ATCC 21630.
Assay [11] has as its system Bacillus subtilis ATCC 11060.
Assay [12] deals with Salmonella enterica subsp. enterica serovar Typhimurium C77-31.
Assay [13] relates to Staphylococcus epidermidis ATCC 12228.
The subject of assay [14] is Staphylococcus aureus ATCC 25923.
In assay [15] the test system is Pseudomonas aeruginosa ATCC 10419.
Assay [16] deals with Salmonella enterica subsp. enterica serovar Pullorum C79-13.
Assay [17] has as its system Pseudomonas aeruginosa ATCC 27853.
Assay [18] deals with Escherichia coli ATCC 25922.
Assay [19] deals with Corynebacterium glutamicum ATCC 13032.
Assay [20] concerns Staphylococcus aureus ATCC 9144.

In brackets after ≈: the same amount, converted by molar mass.

In general, MIC refers to the lowest concentration found to suppress growth.

Turning to `CC(C)C[C@H](NC(=O)[C@H](CCCCN)NC(=O)[C@H](Cc1cnc[nH]1)NC(=O)[C@H](CCCCN)NC(=O)[C@H](CC(C)C)NC(=O)[C@H](C)NC(=O)[C@H](CCCCN)NC(=O)[C@H](C)NC(=O)[C@H](CC(C)C)NC(=O)[C@H](C)NC(=O)[C@H](CCCN=C(N)N)NC(=O)[C@@H](N)CC(C)C)C(N)=O` [LRALAKALKHKL], the MIC in assay [1] was 29.4 µM (≈ 40 µg/mL); in [2] it was 3.67 µM (≈ 5 µg/mL); in [3], 29.4 µM (≈ 40 µg/mL); against Cladosporium herbarum, 14.7 µM (≈ 20 µg/mL); in [4] it was 7.34 µM (≈ 9.99 µg/mL); against Botrytis cinerea, at least 73.4 µM. Moreover, the values for the MIC (in assay [5]; against Alternaria alternata; in assay [6]) were 29.4 µM (≈ 40 µg/mL), at least 73.4 µM and 29.4 µM (≈ 40 µg/mL), respectively.
Turning to `CC[C@H](C)[C@H](NC(=O)[C@H](CCCCN)NC(=O)[C@H](CCCCN)NC(=O)[C@H](CC(C)C)NC(=O)[C@H](CCCN=C(N)N)NC(=O)[C@H](Cc1c[nH]c2ccccc12)NC(=O)[C@H](CCCN=C(N)N)NC(=O)[C@@H](NC(=O)[C@H](CCCCN)NC(=O)[C@H](Cc1c[nH]c2ccccc12)NC(=O)[C@H](CCCN=C(N)N)NC(=O)[C@H](CC(C)C)NC(=O)[C@H](CCCN=C(N)N)NC(=O)[C@H](CCCN=C(N)N)NC(=O)[C@H](Cc1ccccc1)NC(=O)[C@@H](N)CCCN=C(N)N)[C@@H](C)O)C(N)=O` [RFRRLRWKTRWRLKKI], the minimum inhibitory concentration (MIC) is at least 32 µM in assay [7]; 4 µM (≈ 9.2 µg/mL) in [8]; 4 µM (≈ 9.2 µg/mL) in the assay with Escherichia coli UB1005; 8 µM (≈ 18.4 µg/mL) in assay [9]; 16 µM (≈ 36.8 µg/mL) in [10]; 8 µM (≈ 18.4 µg/mL) in assay [11]. The minimum inhibitory concentration (MIC) with Escherichia coli K88 is 4 µM (≈ 9.2 µg/mL); in the assay with Escherichia coli 44102 it was 8 µM (≈ 18.4 µg/mL); in assay [12], 8 µM; in the assay with Escherichia coli 078 it was 4 µM (≈ 9.2 µg/mL); in [13], 8 µM (≈ 18.4 µg/mL); in [14] it was 32 µM (≈ 73.6 µg/mL). Further, the MIC in [15] is 16 µM (≈ 36.8 µg/mL); in the assay with Escherichia coli ER2566, 8 µM (≈ 18.4 µg/mL); in assay [16] it was at least 128 µM; in [17], over 128 µM.
For the molecule `CC[C@H](C)[C@H](NC(=O)[C@@H]1CCCN1C(=O)[C@H](CCCCN)NC(=O)[C@@H]1CCCN1C(=O)[C@H](CCCN=C(N)N)NC(=O)CNC(=O)[C@@H]1CCCN1C(=O)[C@H](Cc1ccccc1)NC(=O)[C@@H]1CCCN1C(=O)[C@H](CCCN=C(N)N)NC(=O)[C@@H]1CCCN1C(=O)[C@H](CCCN=C(N)N)NC(=O)CNC(=O)[C@@H]1CCCN1C(=O)[C@H](CO)NC(=O)[C@@H]1CCCN1C(=O)[C@@H](N)Cc1c[nH]c2ccccc12)C(=O)N[C@@H](Cc1ccccc1)C(=O)N[C@@H](CCCN=C(N)N)C(=O)N1CCC[C@H]1C(=O)N[C@@H](CCCN=C(N)N)C(=O)O` [WPSPGRPRPFPGRPKPIFRPR], the MIC was 35.4 µM (≈ 88.4 µg/mL) in assay [18]; 3.1 µM (≈ 7.75 µg/mL) in assay [19]; 12.5 µM (≈ 31.2 µg/mL) in the assay on Escherichia coli HB101; at least 100 µM in assay [20]; 100 µM (≈ 250 µg/mL) in assay [17].

The record behind these values is DBAASP.
